Patent US20170197910A1, “SUBSTITUTED VINYL AND ALKYNYL CYANOCYCLOALKANOLS AND VINYL AND ALKYNYL CYANOHETEROCYCLOALKANOLS AS ACTIVE AGENTS AGAINST ABIOTIC PLANT STRESS” (BAYER CROPSCIENCE AKTIENGESELLSCHAFT, priority 2014, published 2017)

How the values were obtained:
[1] = biological target: T1, phosphatase ABI1 via the co-regulator RCAR11/PYR1 (Arabidopsis thaliana, UniProt O49686+P49597); experiment: In vitro inhibition of phosphatase ABI1 via co-regulator RCAR11/PYR1, MUP dephosphorylation fluorescence assay; format: biochemical; settings: concentration of 5 mM of the substance in DMSO and water; MUP substrate, 35° C., 20 minutes
T1 sequence (O49686 1-191): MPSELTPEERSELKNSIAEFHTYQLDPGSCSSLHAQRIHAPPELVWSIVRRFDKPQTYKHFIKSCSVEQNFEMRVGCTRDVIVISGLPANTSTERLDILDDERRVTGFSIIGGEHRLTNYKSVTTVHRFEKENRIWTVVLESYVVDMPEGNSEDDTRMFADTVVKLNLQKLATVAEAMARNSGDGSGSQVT
T1 sequence (P49597 1-434): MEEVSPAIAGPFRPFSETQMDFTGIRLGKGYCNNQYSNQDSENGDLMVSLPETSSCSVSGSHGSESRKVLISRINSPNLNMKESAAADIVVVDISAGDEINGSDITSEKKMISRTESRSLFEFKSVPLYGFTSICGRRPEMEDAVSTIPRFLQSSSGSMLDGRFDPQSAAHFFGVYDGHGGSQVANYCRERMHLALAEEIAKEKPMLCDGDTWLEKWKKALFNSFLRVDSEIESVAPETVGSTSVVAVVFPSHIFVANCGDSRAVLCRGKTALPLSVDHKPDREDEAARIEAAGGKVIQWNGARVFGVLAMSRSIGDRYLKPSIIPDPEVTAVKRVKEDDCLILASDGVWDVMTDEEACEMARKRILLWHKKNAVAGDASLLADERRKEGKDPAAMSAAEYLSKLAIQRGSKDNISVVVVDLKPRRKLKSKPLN
Text: Effects of the phytohormone abscisic acid (ABA) on the behaviour of plants under abiotic stress and the mechanism of action of ABA are described in the literature (cf. Abrams et al., WO97/23441, Cutler, Park et al. Science, 2009, 324, 1068; Grill et al. Science, 2009, 324, 1064; Tanokura et al. Biophysics, 2011, 7, 123; Schroeder et al. Plant J. 2010, 61, 290). Therefore, it is possible with the aid of a suitable in vitro test system to derive a correlation between the action of ABA and the stress response of a plant under abiotic stress. In the event of water deficiency (drought stress), plants form the phytohormone abscisic acid (ABA). […]
The assay described hereinafter utilizes the inhibition of the phosphatase ABI1 via the co-regulator RCAR11/PYR1 aus Arabidopsis thaliana. For the determination of activity, the dephosphorylation of 4-methylumbelliferyl phosphate (MUP) was measured at 460 nm. […]
Enzyme buffer mix and substrate mix were made up 5 minutes prior to the addition and warmed to a temperature of 35° C. […] Finally, a relative fluorescence measurement was made at 35° C. with a BMG Labtech “POLARstar Optima” microplate reader using a 340/10 nm excitation filter and a 460 nm emission filter. […]

Zea mays = experiment: In vivo drought stress test on crop plants, spray application, visual scoring vs stressed control (ZEAMX); design: key: 0: no positive effect; 10: slight positive effect; 20: clear positive effect; 30: strong positive effect; settings: dosage 250 g/ha, average score of 3 pots vs stressed control
Method: (§1) Seeds of monocotyledonous and dicotyledonous crop plants were sown in sandy loam in plastic pots, covered with soil or sand and cultivated in a greenhouse under good growth conditions. The trial plants were treated at the early leaf stage (BBCH10-BBCH13). To assure uniform water supply before commencement of stress, the potted plants were supplied with water by dam irrigation prior to substance application. The inventive compounds, formulated in the form of wettable powders (WP), were sprayed onto the green parts of the plants as an aqueous suspension at an equivalent water application rate of 600 I/ha with addition of 0.2% wetting agent (e.g. agrotin). Substance application was followed immediately by stress treatment of the plants. […] Once this juncture had been reached, the appearance of the plants treated with test substances was recorded in comparison to the stressed control plants by the following categories: • 0 no positive effect • 10 slight positive effect • 20 clear positive effect • 30 strong positive effect In order to rule out any influence on the effects observed by any fungicidal or insecticidal action of the test compounds, it was additionally ensured that the tests proceeded without fungal infection or insect infestation. In each test, for each crop and dosage, plants in 3 pots were treated and evaluated separately. […]

Triticum aestivum = experiment: In vivo drought stress test on crop plants, spray application, visual scoring vs stressed control (TRZAS); design: key: 0: no positive effect; 10: slight positive effect; 20: clear positive effect; 30: strong positive effect; settings: dosage 250 g/ha, average score of 3 pots vs stressed control
Method: as §1

| Structure (SMILES) | ABI1 inhibition [1] | Effect (ZEAMX) (Zea mays) | Effect (TRZAS) (Triticum aestivum) |
| --- | --- | --- | --- |
| CC1=CC(=O)CC(C)(C)[C@@]1(O)/C=C/C(C)=C\C(=O)O [abscisic acid, reference compound] | ++++ (inhibition≧90%) | – | – |
| CC(C)C(O)(C#Cc1ccccc1C(=O)O)C1(C#N)CC1 (stereo not shown) [I.1-127, 2-[3-(1-Cyanocyclopropyl)-3-hydroxy-4-methylpent-1-yn-1-yl]benzoic acid] | +++ (90%>inhibition≧70%) | – | – |
| COC(=O)c1ccccc1C#CC(O)(C(C)C)C1(C#N)CC1 (stereo not shown) [I.1-130, Methyl 2-[3-(1-cyanocyclopropyl)-3-hydroxy-4-methylpent-1-yn-1-yl]benzoate] | – | 20 | 20 |
